Assay results: ChEMBL document CHEMBL1201862, “PubChem BioAssay data set” (2004)
The source made the active and inactive calls.

Columns and labels:
[1] = inhibitors of HIV Env-driven cell fusion, dose response, cherry-pick (AID 652057); type: functional, cell-based
[2] = ZM109 Env clade C HIV-1 fusion inhibitors, dose response, HeLa effector, CEM target cells, luciferase, cherry-pick (AID 652058); type: functional, cell-based
[3] = off-target signal loss in HeLa-CEM21 co-culture – HeLa F-luc CTL cells, cherry-picked, counter-screen for HIV-1 Env fusion inhibitor project, dose response (AID 652040); type: functional, cell-based;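 note: potency for signal decrease marking cytotoxic or nonspecific inhibition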
[4] = inhibitors of clade B AD8 Env fusion, dose response, cell-based, cherry-pick (AID 652062); type: functional;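 note: luciferase signal from cell-cell fusion driven by HIV-1 clade B AD8 Env; potency is for inhibitors of fusion seen as a drop in luminescence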
Estrogen receptor beta = Estrogen receptor beta (Homo sapiens, UniProt Q92731);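 note: recombinant ER-beta bound to coactivator SRC1 peptide in presence of estradiol agonist; inhibitors block coactivator peptide binding and lower the FRET signal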
P388/ADR = assay: cells; type: functional; settings: Mus musculus
SN12K1 = assay: cells; type: functional; settings: Homo sapiens
P388 = assay: cells; type: functional; settings: Mus musculus
[5] = target: T1, DNA repair protein RAD52 homolog (Homo sapiens, UniProt P43351); type: functional, biochemical
T1 sequence (P43351 whole entry): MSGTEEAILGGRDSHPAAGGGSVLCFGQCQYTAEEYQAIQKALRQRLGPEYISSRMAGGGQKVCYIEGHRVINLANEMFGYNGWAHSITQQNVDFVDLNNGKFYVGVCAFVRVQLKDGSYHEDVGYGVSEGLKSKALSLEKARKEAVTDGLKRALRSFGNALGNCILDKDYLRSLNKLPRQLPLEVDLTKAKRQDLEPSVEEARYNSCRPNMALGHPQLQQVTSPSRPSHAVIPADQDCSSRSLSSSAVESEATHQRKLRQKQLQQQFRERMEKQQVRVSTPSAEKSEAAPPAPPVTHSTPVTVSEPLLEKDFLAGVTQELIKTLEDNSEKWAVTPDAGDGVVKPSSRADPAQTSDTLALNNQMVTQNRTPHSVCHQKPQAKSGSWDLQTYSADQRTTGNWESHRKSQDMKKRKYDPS

BJ [6] = assay: cytotoxicity toward BJ-TERT fibroblasts, dose response, cell-based, RAS-independent, luminescence (AID 1933); type: functional; settings: Homo sapiens
BJ [7] = assay: cells; type: functional, cell-based; settings: Homo sapiens
BJ [8] = assay: cytotoxicity toward BJ-TERT-LT-ST fibroblasts, dose response, cell-based, RAS-independent, luminescence (AID 1935); type: functional; settings: Homo sapiens;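 note: BJ fibroblasts immortalized with TERT plus LT and ST oncogenes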
[9] = cytotoxicity toward DRD oncogenic fibroblasts, dose response, cell-based, non-viral oncogenic, luminescence (AID 1934); type: functional; settings: Homo sapiens
cells [10] = type: functional, cell-based
[11] = inhibitors of intracellular T. cruzi replication, confirmation, NIH3T3 host cells, beta-gal luminescence (AID 2044); type: functional, cell-based;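 note: intracellular parasites grown in NIH/3T3 mouse fibroblasts as host cells; luminescent beta-galactosidase reporter signal from transgenic T. cruzi replicating inside host cells; inhibitors lower the luminescence signal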
cells [12] = type: functional, cell-based; remark: listed apart in the source
[13] = cytotoxicity toward NIH3T3 fibroblasts, dose response, counter-screen, cell-based, ATP luminescence, mouse fibroblasts (AID 2010); type: functional;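 note: cells exposed to compound for about 90 hours before reading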
[14] = Shn3 3'UTR reporter inhibitors, dose response, cell-based, Clone20 osteoblasts, firefly luciferase, cherry-picked (AID 624132); type: functional;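 note: firefly luciferase luminescence from reporter carrying the Shn3 3'UTR in osteoblasts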
[15] = HepG2 cell cytotoxicity, dose response, cytotoxicity control for Shn3 inhibitor project, CellTiter-Glo, cherry-picked (AID 624134); type: functional, cell-based
[16] = control 3'UTR Renilla luciferase suppression, dose response, counter-screen for Shn3 inhibitor project, cell-based, Clone20-Shn3RL, cherry-picked (AID 624133); type: functional
Paired box protein Pax-8 = Paired box protein Pax-8 (Homo sapiens, UniProt Q06710); assay: inhibitors of PAX8-driven TPO luciferase reporter, dose response, RMG-I cells, cherry-pick (AID 687027); type: functional, cell-based;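 note: luciferase reporter driven by Pax8 target thyroperoxidase promoter measured by SteadyGlo luminescence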
[17] = cytotoxicity in OVCAR8 ovarian cancer cells, dose response, PAX8 project, cell-based, plate reader, dry powder samples (AID 743197); type: functional; settings: OVCAR-8
[18] = target: T2, Polyadenylate-binding protein 1 (Homo sapiens, UniProt P11940); assay: PABP1 MLLE–PAM2 interaction inhibitors, dose response, miRNA deadenylation inhibitor project, biochemical, fluorescence polarization, Cy5-PAM2 peptide, secondary (AID 602260); type: functional; settings: read-out: IC50_Mean
[19] = target: T2, Polyadenylate-binding protein 1; assay: PABP1 MLLE–PAM2 binding inhibitor potency, dose response, biochemical, fluorescence polarization, FITC-PAM2 peptide (AID 602259); type: functional; settings: read-out: IC50_Mean
HEK293 = assay: inhibitors of LMP1-driven NF-kB reporter, dose response, cell-based, HEK293, luciferase, cherry-pick (AID 588343); type: functional; settings: Homo sapiens
[20] = LGR2 antagonists, dose response, cell-based, HEK293, CRE-luciferase reporter, cherry pick, set 2 (AID 743343); type: functional;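 note: transfected cells were stimulated with diluted bursicon conditioned medium after compound addition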
[21] = MC4R antagonists, dose response, counter-screen for LGR2 antagonist project, cell-based, plate reader, cherry pick (AID 743444); type: functional;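 note: transfected HEK 293 cells stimulated with alpha-MSH peptide; potency of inhibitors of the alpha-MSH evoked signal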
[22] = NIH-3T3 fibroblast cytotoxicity, dose response, cytotoxicity control, cell-based, fluorescence, Alamar Blue, secondary assay (AID 2327); type: functional;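 note: NIH-3T3 mouse fibroblasts cultured with fluconazole at 8 µg/mL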
[23] = inhibitors of firefly luciferase expression or activity, dose response, H4 neuroglioma cells, luminescence (AID 1990); type: functional, cell-based
[24] = Luminescence Cell-Based Dose Response HTS to Identify Inhibitors of 5'UTR Stem-Loop Driven Prion Protein mRNA Translation in H4 Neuroglioblastoma Cells. [Related pubchem assays: 1827 (Project Summary), 1813 (Primary HTS)]; type: functional
[25] = inhibitors of SNCA 5'UTR-driven reporter translation, confirmation, H4 neuroglioma cells, luminescence (AID 1988); type: functional, cell-based
[26] = C. albicans growth with fluconazole, confirmation, fluorescence, retest (AID 2467); type: functional, cell-based
INS1 = assay: beta cell apoptosis inhibitors, cytokine rescue, dose response, luminescence, retest (AID 449756); type: functional, cell-based; settings: Rattus norvegicus;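 note: cell death triggered by IL-1 beta plus TNF-alpha plus IFN-gamma mixture; protective hits raise ATP signal compared with cytokine alone wells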

T2 sequence (P11940 whole entry): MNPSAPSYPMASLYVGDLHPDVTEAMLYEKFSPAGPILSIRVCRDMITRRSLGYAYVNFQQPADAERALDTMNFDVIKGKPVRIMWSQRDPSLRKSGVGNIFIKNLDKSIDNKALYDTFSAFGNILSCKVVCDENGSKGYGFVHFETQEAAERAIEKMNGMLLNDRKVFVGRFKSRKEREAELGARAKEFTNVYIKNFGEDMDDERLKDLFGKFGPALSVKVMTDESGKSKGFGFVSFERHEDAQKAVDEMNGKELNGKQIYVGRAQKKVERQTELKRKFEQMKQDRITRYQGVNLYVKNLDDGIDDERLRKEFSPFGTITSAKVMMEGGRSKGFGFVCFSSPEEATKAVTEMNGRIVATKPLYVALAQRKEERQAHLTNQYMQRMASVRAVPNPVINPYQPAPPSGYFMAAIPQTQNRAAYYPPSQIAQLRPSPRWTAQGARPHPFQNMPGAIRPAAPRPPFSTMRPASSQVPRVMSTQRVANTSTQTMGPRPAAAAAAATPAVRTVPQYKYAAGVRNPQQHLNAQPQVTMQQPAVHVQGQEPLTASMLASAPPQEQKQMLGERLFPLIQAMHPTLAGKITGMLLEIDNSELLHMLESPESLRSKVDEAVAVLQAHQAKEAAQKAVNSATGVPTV
Sequence of Estrogen receptor beta (Q92731 whole entry): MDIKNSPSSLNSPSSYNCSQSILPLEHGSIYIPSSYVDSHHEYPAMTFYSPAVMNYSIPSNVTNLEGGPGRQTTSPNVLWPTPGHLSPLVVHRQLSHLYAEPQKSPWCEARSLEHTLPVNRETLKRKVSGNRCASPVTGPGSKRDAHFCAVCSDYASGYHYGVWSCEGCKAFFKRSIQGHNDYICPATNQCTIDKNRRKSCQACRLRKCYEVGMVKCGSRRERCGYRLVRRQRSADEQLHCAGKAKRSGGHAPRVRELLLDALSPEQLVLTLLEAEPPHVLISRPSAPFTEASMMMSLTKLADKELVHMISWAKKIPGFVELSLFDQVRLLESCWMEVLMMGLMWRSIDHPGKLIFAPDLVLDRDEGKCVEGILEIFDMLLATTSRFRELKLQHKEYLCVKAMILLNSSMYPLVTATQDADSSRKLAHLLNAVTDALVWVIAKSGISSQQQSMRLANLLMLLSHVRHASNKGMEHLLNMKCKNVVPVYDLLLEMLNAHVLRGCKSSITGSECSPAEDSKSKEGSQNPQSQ
Sequence of Paired box protein Pax-8 (Q06710 whole entry): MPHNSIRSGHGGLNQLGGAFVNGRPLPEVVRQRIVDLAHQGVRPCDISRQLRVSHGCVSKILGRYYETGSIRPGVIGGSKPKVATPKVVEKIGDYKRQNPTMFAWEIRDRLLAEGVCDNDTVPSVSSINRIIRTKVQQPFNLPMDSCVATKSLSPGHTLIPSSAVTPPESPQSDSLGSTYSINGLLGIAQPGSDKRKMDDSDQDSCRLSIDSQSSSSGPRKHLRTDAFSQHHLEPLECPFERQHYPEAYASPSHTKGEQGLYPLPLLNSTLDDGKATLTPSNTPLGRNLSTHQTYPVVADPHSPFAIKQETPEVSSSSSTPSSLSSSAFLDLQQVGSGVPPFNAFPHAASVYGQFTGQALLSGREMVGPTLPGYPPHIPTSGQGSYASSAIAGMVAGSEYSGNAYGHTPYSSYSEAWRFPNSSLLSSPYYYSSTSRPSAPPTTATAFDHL

Cc1ccc(S(=O)(=O)N2CCC(=O)N(CCOCc3ccc(C(F)(F)F)cc3)CC2)cc1
AC50 [1]: 5.79 µM (active)
AC50 [2]: 3.68 µM (active)
AC50 [3]: 14.6 µM (active)
AC50 [4]: 6.53 µM (active)

N#C/C(=C\c1c(N2CCC(C(N)=O)CC2)nc2ccccn2c1=O)S(=O)(=O)c1ccccc1
IC50 (Estrogen receptor beta): > 50 µM (not active)

O=C(c1ccccc1O)c1cc(-c2ncc3c(=O)c4ccccc4oc3n2)c(-c2ccccc2O)[nH]c1=O
GI50 (P388/ADR): 22.4 µM (inactive)
GI50 (SN12K1): 17.5 µM (inactive)
GI50 (P388): 19.7 µM (inactive)

O=NN(CCF)C(=O)NC1CC2CCC1C2 (stereo not given)
GI50 (P388/ADR): 24.5 µM (inactive)
GI50 (SN12K1): > 100 µM (inactive)
GI50 (P388): 15.8 µM (inactive)

O=C(Cn1ccnc1[N+](=O)[O-])N(CCO)CCO
GI50 (P388/ADR): > 1250 µM (inactive)
GI50 (SN12K1): > 1250 µM (inactive)
GI50 (P388): > 1250 µM (inactive)

COc1ccc(Cn2nnnc2C(c2ccccc2OC)N2CCC(C(N)=O)CC2)cc1 (stereo not given)
IC50 (Estrogen receptor beta): > 50 µM (not active)

COC(=O)[C@]1(c2ccc(N(C)C)cc2OC)C[C@@H]2CCCN(CCc3c1[nH]c1ccccc31)C2
GI50 (P388/ADR): 18.1 µM (inactive)
GI50 (SN12K1): 17.4 µM (inactive)
GI50 (P388): 16.7 µM (inactive)

CCCNc1nc(Cl)nc(NCc2cccnc2)n1
AC50 [5]: 4.26 µM (active)

CCOC(=O)C1=C(C(C)=O)CSC(c2ccccc2)=N1
GI50 (P388/ADR): 68.5 µM (inactive)
GI50 (SN12K1): > 100 µM (inactive)
GI50 (P388): > 100 µM (inactive)

COc1c(/C=N/Nc2ccc([N+](=O)[O-])cc2[N+](=O)[O-])c(C)nn1-c1ccccc1
EC50 (BJ [6]): 7.99 µM (active)
EC50 (BJ [7]): > 150 µM (not active)
EC50 (BJ [8]): > 150 µM (inconclusive)
EC50 [9]: 15.8 µM (active)

O=C(NNC(=O)c1cccnc1SCc1cccc([N+](=O)[O-])c1)c1ccccn1
EC50 (cells [10]): 27.8 µM (active)
EC50 [11]: 0.994 µM (active)
EC50 (cells [12]): > 350 µM (not active)
EC50 [13]: 1.65 µM (active)
AC50 [14]: 1.9 µM (active)
AC50 [15]: 7.84 µM (active)
AC50 [16]: 1.32 µM (active)

COC(=O)C(C/C=C(\C)c1ccccc1)C(C)=O (stereo not given)
GI50 (P388/ADR): 29 µM (inactive)
GI50 (SN12K1): 45.2 µM (inactive)
GI50 (P388): 27.2 µM (inactive)

O=C(C[C@H]1C[C@@H]2c3cc(NS(=O)(=O)c4ccc(F)cc4)ccc3O[C@@H]2[C@@H](CO)O1)NCc1ccc(-c2ccccc2)cc1
AC50 [1]: 23.1 µM (active)
AC50 [2]: 9.89 µM (active)
AC50 (Paired box protein Pax-8): 7.31 µM (active)
AC50 [4]: 19.4 µM (active)
AC50 [17]: 4 µM (active)

COc1cc(C2c3cc4c(cc3[C@@H](Nc3ccc(F)cc3)C3COC(=O)[C@H]23)OCO4)cc(OC)c1O (stereo not given in full)
GI50 (P388/ADR): 0.09 µM (active)
GI50 (P388): < 0.01 µM (active)

O=C(c1ccc2ncsc2c1)N1CCN(c2nc3ccccc3s2)CC1
AC50 [1]: 4.18 µM (active)
AC50 [2]: 8.38 µM (active)
AC50 [3]: 3.19 µM (active)
AC50 [4]: 8.65 µM (active)

C[C@H]1CN([C@@H](C)CO)C(=O)Cc2cc(NC(=O)Cc3ccccc3)ccc2O[C@H]1CN(C)S(=O)(=O)c1cccs1
AC50 [1]: 1.48 µM (active)
AC50 [2]: 2.26 µM (active)
AC50 [3]: 2.4 µM (active)
AC50 [4]: 3.35 µM (active)

COc1ccc(C(N)=S)c(OC)c1
IC50 [18]: > 66 µM (inactive)
IC50 [19]: > 66 µM (inactive)
AC50 [5]: 9.26 µM (active)

O=C(CN1C(=O)c2ccccc2S1(=O)=O)c1ccc(F)c(F)c1
AC50 (HEK293): 6.76 µM (active)
AC50 [20]: 9.41 µM (active)
AC50 [21]: 3.42 µM (active)

COc1cccc(-c2nc3c(C(=O)NCCN(C)C)cccc3[nH]2)c1
GI50 (P388/ADR): 13.7 µM (inactive)
GI50 (SN12K1): 12.4 µM (inactive)
GI50 (P388): 4.45 µM (inactive)

COc1ccc(-[n+]2c(-c3ccccc3)cc(-c3ccccc3)cc2-c2ccccc2)cc1.[O-][Cl+3]([O-])([O-])[O-]
EC50 [22]: 40.7 µM (active)
EC50 [23]: 11 µM (active)
EC50 (BJ [6]): 11.7 µM (inconclusive)
EC50 [24]: > 120 µM (not active)
EC50 [25]: 17.9 µM (active)
EC50 (BJ [7]): 14.1 µM (active)
EC50 [26]: 0.046 µM (active)
EC50 (BJ [8]): > 150 µM (inconclusive)
EC50 [9]: 14.1 µM (active)
AC50 (INS1): 1.33 µM (active)

CCN(C[C@H]1N[C@@](C)(C(=O)OC)[C@H]2C(=O)N(Cc3ccccc3)C(=O)[C@@H]12)S(=O)(=O)c1ccc(C)cc1
AC50 [1]: 5.73 µM (active)
AC50 [2]: 15 µM (active)
AC50 [3]: 21.4 µM (active)
AC50 [4]: 69.3 µM (active)

O=C(O)c1ccc(N/N=C/c2ccc3ncccc3c2)cc1
AC50 (HEK293): 2.54 µM (active)
AC50 [20]: 3.18 µM (active)
AC50 [21]: 3.72 µM (active)

COc1ccc(OC)c(CN2C(=O)c3ccccc3C2c2nnnn2-c2c(C)cccc2C)c1 (stereo not given)
AC50 [1]: 4.69 µM (active)
AC50 [2]: 3.93 µM (active)
AC50 [3]: 19 µM (active)
